Experimental data reported in US20250268859A1, “OXAFURAMINE, (1R)-N-ETHYL-1-[(2R)-OXOLAN-2-YL]-2-[…], HYDROCHLORIDE AND DERIVATIVES THEREOF FOR TREATING ALZHEIMER'S DISEASE (AD), […] […], […] WITH LEWY BODIES (DLB), MIXED […], FRON[…] DEGENERATION (FTLD), AND PARKINSON'S DISEASE (PD)” (NLS Pharmaceutics AG, priority 2021, published 2025).

System: memory (recognition of the familiar object) in mice
Assay: Novel Object Recognition (NOR) test in mice
Format: in vivo, C57BL/6J, male
Conditions: choice trial, mean, N = 16
Method: The test was carried out in circular boxes (30 cm diameter, 40 cm high). The objects to be discriminated (L≈1≈h≈3-4 cm) differed in both color and shape and were referred as yellow duck and blue lego. They were fixed with a magnet to the floor of the boxes at 5 cm of the wall, 20 cm distant. Apparently, they have no natural significance for mice and they have never been associated with a reinforcement. In order to rule out the possibility of scent traces left on the objects and therefore the dependency of the recognition capacity of mice on the olfactory cue, the objects and the ground of the box were washed with an odorless disinfectant (Sanicid® diluted in water) and dried between each trial. A camcorder was fixed to the ceiling above the box to record the animals' activity. The experiment was analyzed blindly at a later time.
On the week before the test, animals were handled by the experimenter in charge of the experiment in order to be not stressed at the time of testing. For this purpose, the experimenter placed a small amount of litter, and then the mouse on its hand.
The NOR test was completed over five days (see FIG. 1): • Day 1: Habituation trial. Animals were individually placed for a 15-min free exploration session in empty open boxes. • Day 2. Treatment administration and sample trial. […] They were individually placed 30 min after in the apparatus for a 6-min session with two identical objects (Duck, 50% of animals or Lego, 50% of animals). • Day 3. Choice trial. The mice were individually placed for a 6-min session in the apparatus with two objects (Duck and Lego), one of the objects presented in sample trials (termed as familiar objects) and a novel object (Lego, 50% of animals or Duck, 50% of animals).
The sample and choice trials were recorded with the camera located above the apparatus. The time spent by mice in exploring the objects was measured during the sample trial and the choice trial. Exploration of an object was defined as follows: directing the nose to the object at a distance≤2 cm and/or touching it with the nose or forelimbs; turning around or biting the object, or sitting on the object were not considered as exploratory behavior.
• L=exploration time of the left object in the sample trial. • R=exploration time of the right object in the sample trial. • N=exploration time of the new object in the choice trial. • F=exploration time of the familiar object in the choice trial.
• Exploration indices: • ST=L+R=exploration time (left object+right object) in the sample trial. • CT=N+F=exploration time (new object+familiar object) in the choice trial. • Two memory indices: • N-F=difference of exploration time between the new object and the familiar object in the choice trial.
Statistical analyses: • Read-outs: DI, N-F, ST, CT, N, F • Unpaired Student's t test: Donep 2 group vs. Control group. • One-way ANOVA, Dunnett test: • NLS-12 groups vs. Control group. • NLS-12 groups vs. Donep 2 group. • Read-outs: DI and N-F, for all groups, paired Student's t test, difference vs. 0. • Body weight: one-way ANOVA.

## CCN[C@H](Cc1ccccc1)[C@H]1CCCO1 [Oxafuramine, (1R)—N-ethyl-1-[(2R)-oxolan-2-yl]-2-phenylethanamine]
NLS-12 1 mg/kg i.p.
  F Exploration time of familiar object: 12.0 s
  N Exploration time of novel object: 12.6 s
NLS-12 4 mg/kg i.p.
  F Exploration time of familiar object: 11.0 s
  N Exploration time of novel object: 14.7 s
NLS-12 8 mg/kg i.p.
  F Exploration time of familiar object: 9.9 s
  N Exploration time of novel object: 15.9 s
